Source: US6677344B2, “Chymase inhibitor for the treatment of eosinophilia” (Daiichi Suntory Pharma Co., Ltd., priority 2000, dated 2004)

Tests used:
Human heart chymase = target: T1, Human heart chymase (Homo sapiens, UniProt P23946); assay: Measurement of chymase inhibitory activity; assay type: biochemical; conditions: substrate Suc-Ala-Ala-Pro-Phe-MCA, 30° C., pH 7.5
T1 construct: Human heart chymase was purified according to the method of Urata et al; from tissue; host or cells: human heart
T1 sequence (P23946 22-247): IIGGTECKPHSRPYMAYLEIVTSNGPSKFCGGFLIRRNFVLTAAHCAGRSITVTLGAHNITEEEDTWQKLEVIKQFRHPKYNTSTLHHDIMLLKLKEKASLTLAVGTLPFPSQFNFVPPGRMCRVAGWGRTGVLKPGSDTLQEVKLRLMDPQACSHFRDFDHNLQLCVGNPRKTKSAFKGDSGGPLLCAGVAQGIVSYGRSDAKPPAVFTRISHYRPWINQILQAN
Experimental: Human heart chymase was purified according to the method of Urata et al. (J. Biol. Chem., 1990, 265, 22348). The inhibitory activity of the compound of the present invention was determined as follows. Purified enzyme was diluted with 0.1M tris-HCl buffer (pH=7.5), 1M sodium chloride, and 0.01% TritonX-100 to obtain an enzyme solution having appropriate concentrations. Suc-Ala-Ala-Pro-Phe-MCA (Peptide Institute Inc.) was dissolved in 10 mM dimethyl sulfoxide (hereinafter referred to as DMSO) and diluted 20-fold with 0.1M Tris-HCl buffer (pH 7.5) containing 1M sodium chloride and 0.01% TritonX-100 to an appropriate concentration to prepare substrate solution.
5 μl of the test sample in DMSO was added to 75 μl of the enzyme solution and preincubated at 30° C. for 10 minutes. Then, 20 μl of the substrate solution was added to the test sample-enzyme mixture, and incubated at 30° C. Ten minutes later, 50 μl of 30% acetic acid was added to stop the enzymatic reaction, and the amount of AMC formed was determined using a fluorophotometer. At the same time, 5 μl of DMSO in stead of the test sample was added and reacted simultaneously as a control. The inhibitory activity to human chymase was calculated based on the value of the control, and then the inhibition percentage and the 50% inhibition concentration (IC50) were determined.

[1] = test system: eosinophils in the peripheral blood of Nb infected mice; assay: Increase in eosinophils of mice infected with Nippostrongylus brasiliensis (Nb); assay type: in vivo
Experimental: (§1) Male BALB/c mice (7-weeks old) were transcutaneously inflected with 750 parasitic worms of Nippostrongylus brasiliensis (Nb) (third stage larvae) in accordance with an already reported method (Int. Arch. Allergy Immunol. 117, Suppl. 1, 2, 1998). After two weeks, the number of eosinophils in the peripheral blood and the total number of leukocytes in the peripheral blood were measured. Further, at day 7 and day 10, the number of eggs in the feces was measured. The chymase inhibitor (Compound 18) was dissolved in saline and injected intraperitoneally in 0.2 ml amounts once a day continuously from the day before infection until the end of the test. Note that the control group was administered only saline. The number of cells in the peripheral blood was measured by sampling peripheral blood from the eye cavity. The eosinophils were stained with a Hinkelman's solution, then counted under a microscope. Further, the total number of leukocytes was measured under a microscope after staining with by a Turk's solution. The number of eggs in the feces was determined by obtaining individual feces of the mice, measuring their weight, then dissolving them in 1 ml of 10% formalin, counting the number of eggs in the feces solution under a microscope, then expressing the result as the number of eggs per gram of feces.

[2] = test system: Nippostrongylus brasiliensis (Nb); assay: Number of eggs in feces in Nb infected mice; assay type: in vivo
Experimental: as §1

[3] = 50 mg/kg, intraperitoneal once a day, BALB/c mice, 2 weeks after Nb infection

SMILES | IC50 (Human heart chymase) | Number of eosinophils in peripheral blood, 2 weeks after infection ([1]; 2 mg/kg, intraperitoneal once a day, BALB/c mice, 2 weeks after Nb infection) | Number of eosinophils in peripheral blood, before infection ([1]; 2 mg/kg, intraperitoneal once a day, BALB/c mice) | Number of eosinophils in peripheral blood, 2 weeks after infection ([1]; 10 mg/kg, intraperitoneal once a day, BALB/c mice, 2 weeks after Nb infection) | Number of eosinophils in peripheral blood, before infection ([1]; 10 mg/kg, intraperitoneal once a day, BALB/c mice) | Number of eosinophils in peripheral blood, 2 weeks after infection [1, 3] | Total no. of leukocytes in peripheral blood 2 weeks after infection [1, 3] | Number of eosinophils in peripheral blood, before infection ([1]; 50 mg/kg, intraperitoneal once a day, BALB/c mice) | Effect on Nb-induced increase in the number of eosinophils ([1]; 50 mg/kg/day, Dunnett's test, 2 weeks after infection) | Effect on the total number of leukocytes in the peripheral blood ([1]; Nb infected mice, 2 weeks after infection) | No. of Nb eggs in gram of feces, Day 7 ([2]; 50 mg/kg, intraperitoneal once a day, day 7 after Nb infection) | No. of Nb eggs in gram of feces, Day 10 ([2]; 50 mg/kg, intraperitoneal once a day, day 10 after Nb infection) | Difference in number of eggs of Nb versus group not administered ([2]; day 7 or day 10 after Nb infection)
CC(C(=O)O)C(=O)Nc1cccc(S(=O)(=O)n2c(=O)[nH]c3cc(Cl)ccc3c2=O)c1 (stereo not shown) [Compound 13, 2-{3-[(7-chloro-2,4(1H,3H)-quinazolinedion-3-yl)sulfonyl]phenylaminocarbonyl}propionic acid] | 0.3 µM |  |  |  |  |  |  |  |  |  |  |  | 
Nc1cc(S(=O)(=O)n2c(=O)[nH]c3cc(Cl)ccc3c2=O)ccc1C(=O)[O-].[Na+] [Compound 18, 4-[(7-chloro-2,4(1H,3H)-quinazolinedion-3-yl)sulfonyl]anthranilic acid monosodium salt] |  | 1036 ± 240 no./mm^3 | 30 ± 12 no./mm^3 | 818 ± 155 no./mm^3 | 36 ± 11 no./mm^3 | 360 ± 66 no./mm^3 | 5820 ± 460 no./mm^3 | 32 ± 16 no./mm^3 | significantly suppressed | little effect | 30541 ± 12501 eggs per gram of feces | 558 ± 1248 eggs per gram of feces | almost no difference
